{"source": "paper PMC9234671", "about": "“Molecular determinants of αVβ5 localization in flat clathrin lattices – role of αVβ5 in cell adhesion and proliferation” (Journal of Cell Science, 2022)", "key": {"[1]": {"tested_on": "integrin β5 localization in PA-JEB/β4 keratinocytes", "experiment": "Immunofluorescence: integrin β5 clustering in FAs/FCLs, PA-JEB/β4", "format": "cell-based, human", "description": "Fig. 3. Serine 759 and 762 are involved in regulating the localization of integrin β5. (A–C) Integrin β5 containing S759/762E or S759/762A mutations (A) were expressed in β5-deficient PA-JEB/β4 keratinocytes and the subcellular distribution of β5 was compared to β5-deficient keratinocytes expressing wild-type (WT) β5. Merged images show integrin β5 (green), vinculin (B) or clathrin (C) (red), actin (blue) and the cell nuclei (cyan). (D,E) Analysis of wild-type versus mutant integrin β5 clustering in FAs or FCLs. (F–I) PA-JEB/β4 keratinocytes were grown in 10% FCS-supplemented DMEM culture medium overnight and then treated with 5 nM calyculin A (Cal.A) or DMSO (vehicle control) for 30 min prior to fixation. Merged images show integrin β5 (green), vinculin (F) or clathrin (H) (red), actin (blue) and the cell nuclei (cyan), quantifications of β5 clustering in FAs or FCLs are shown in G,I. (J,K) Analysis of integrin β5 clustering in FAs or FCLs in PA-JEB keratinocytes after treatment with Cal.A. Representative confocal microscopy images are shown in Fig. S3. Scale bars: 20 μm. Data were obtained from three independent experiments. Total cells analyzed per condition: 109 (WT), 116 (S>E), 103 (S>A) (D), 81 (WT), 77 (S>E), 101 (S>A) (E), 126 and 123 (G), 111 and 101 (I), 106 and 102 (J), 115 and 109 (K). ****P<0.0001 (Mann–Whitney U-test). Box plots range from the 25th to 75th percentile; central line indicates the median; whiskers show smallest to largest value.\nPA-JEB/β4 keratinocytes were seeded on glass coverslips and cultured in complete KGM medium for 24 h, and then treated with DMEM plus 10% FCS for 24 h. Other cell lines were seeded on glass coverslips and cultured in DMEM plus 10% FCS. Cells were fixed with 2% paraformaldehyde (PFA) for 10 min, permeabilized with 0.2% Triton X-100 for 5 min, and blocked with PBS containing 2% bovine serum albumin (BSA; Sigma) for at least 30 min. Next, cells were incubated with the primary antibodies for 1 h at room temperature. Cells were washed three times before incubation with the secondary antibodies for 1 h. Additionally, nuclei were stained with DAPI, and filamentous actin was visualized using Alexa Fluor 488 or 647-conjugated phalloidin (Invitrogen). After three washing steps with PBS, the coverslips were mounted onto glass slides in Mowiol. Images were obtained using a Leica TCS SP5 confocal microscope with a 63× (NA 1.4) oil objective.\nImage analysis was performed using Fiji (ImageJ) ([Schindelin et al., 2012]; [Schneider et al., 2012]). To quantify integrin clustering in FAs (based on vinculin staining) versus FCLs (clathrin staining), background was subtracted in both channels using a bilateral filter and the region of interest (ROI) was selected at the cell periphery. Colocalization of integrin clusters and FAs or FCLs was determined using the Image Calculator (command ‘multiply’) on both channels and calculating the area of overlapping clusters as a percentage of the total integrin cluster area per cell using the Analyze Particle function."}, "[2]": {"tested_on": "phosphorylated MLC in PA-JEB/β4 keratinocytes", "experiment": "Western blot: cell tension (phosphorylated myosin light chain)", "format": "cell-based, human", "settings": "nocodazole", "description": "Proteins were separated by electrophoresis using a Bolt Novex 4–12% gradient Bis-Tris gels (Invitrogen) or 15% SDS-PAGE gels (made in-house), transferred to Immobilon-P transfer membranes (Millipore Corp) and blocked for at least 30 min in 2% BSA in TBST buffer (10 mM Tris-HCl pH 7.5, 150 mM NaCl and 0.3% Tween-20). Primary antibody (diluted 1:1000 in 2% BSA in TBST buffer) incubation took place overnight at 4°C. After washing twice with TBST and twice with TBS, blots were incubated for 1 h hour at room temperature with horseradish peroxidase-conjugated goat anti-mouse-IgG or goat anti-rabbit-IgG (diluted 1:3000 in 2% BSA in TBST buffer). After subsequent washing steps, the bound antibodies were detected by enhanced chemiluminescence using SuperSignal™ West Dura Extended Duration Substrate (ThermoFisher) or Clarity™ Western ECL Substrate (Bio-Rad) as described by the manufacturer. Signal intensities were quantified using ImageJ.\nFig. S4. (A) Representative western blots of phosphorylated myosin light chain (MLC) and GAPDH in PA-JEB/β4 keratinocytes treated with DMSO versus Nocodazole. […]\nμm. Quantifications of β5 or β5 mutants clustering in FAs are shown in (C-E). […] Total cells analyzed per condition: 90 (WT, DMSO), 111 (WT, Noco.) (C), 40 (S>E, DMSO), 80 (S>E, Noco.) (D), 65 (S>A, DMSO), 82 (S>A, Noco.) (E). […]"}}, "data": [{"molecule": "COC(=O)Nc1nc2ccc(C(=O)c3cccs3)cc2[nH]1", "note": "[nocodazole]", "values": [{"measurement": "localization of β5 in FCLs", "setting": "[1]; nocodazole", "result": "inhibits the localization of β5 in FCLs"}, {"measurement": "localization of β5 within FAs and FCLs", "setting": "[1]; nocodazole versus DMSO, three independent experiments", "result": "significant shift in the localization of β5 from FCLs to FAs"}, {"measurement": "localization of phospho-inhibitory β5 mutant", "setting": "[1]; nocodazole, β5-deficient keratinocytes expressing β5-S759/762A", "result": "neither of their localizations were altered"}, {"measurement": "localization of phospho-mimetic β5 mutant", "setting": "[1]; nocodazole, β5-deficient keratinocytes expressing β5-S759/762E", "result": "neither of their localizations were altered"}, {"measurement": "cell tension", "setting": "[2]", "result": "increased cell tension"}]}]}
